Measurements as given in article PMC8584173, “The Cytotoxic Effect of Copper (II) Complexes with Halogenated 1,3-Disubstituted Arylthioureas on Cancer and Bacterial Cells” (International Journal of Molecular Sciences, 2021).

Tests used:
[1] = test system: Thioredoxin-dependent peroxide reductase, mitochondrial (PRDX3_HUMAN); assay: LC–MS proteome analysis, PRDX3; type: cell-based, Homo sapiens; conditions: IC50 concentration, % of control
Experimental: (§1) Enzymes involved in oxidoreductive potential were analyzed in the cell lysates obtained after treatment cells with selected conjugates for 24 h. Cells were washed with phosphate-buffered saline (PBS) and harvested, then centrifuged at 1000× g for 10 min. Then, lysis buffer (containing protease inhibitor, 1% RIPA Lysis and Extraction Buffer (ThermoFisher)) and cold PBS were added, and samples were sonicated three times in ice bath. Next, the cell lysates were centrifuged at 14,000× g at 4 °C for 15 min, and then supernatants were stored at […] before use. Protein concentration was measured by the Bradford method.
(§2) Normalized protein concentrations (5 µg) from cell lysate were precipitated by ice cold (–20 °C) acetonitrile (ACN, Merck, in ratio 1:4). Then, samples were centrifuged (–9 °C, 30 min., 18,000× g), the supernatant was discarded and ACN excess was evaporated using a vacuum centrifuge (5 min., room temp.). Protein pellet was dissolved in 40 mM ammonium bicarbonate. An amount of 500 mM dithiothreitol (DTT, with final concentration 20 mM) and 1 M iodoacetamide (IAA, with final concentration 40 mM) were used for reduction and alkylation processes. After 16 h of incubation in 37 °C with Trypsin Gold (Promega), digested protein samples were diluted with 0.1% formic acid (ThermoFisher) and centrifuged (+2 °C, 30 min, 18,000× g).
(§3) LC–MS analysis was carried out with the use of nanoUHPLC (nanoElute, Bruker) coupled by CaptiveSpray (Bruker) to ESI-Q-TOF mass spectrometer (Compact, Bruker). Two-column separation method was used, i.e., pre-column (300 µm × 5 mm, C18 PepMap 100, 5 µm, 100Å, Thermo Scientific) and Aurora separation column with CSI fitting (75 µm × 250 mm, C18 1.6 µm) in gradient 2% B to 35% B in 90 min with the 300 nL/min flow rate. Mobile phases (A) 0.1% formic acid in water and (B) 0.1% formic acid in ACN were used.
(§4) Sample ionizations were performed at a gas flow of 3.0 L/min, temperature of 150 °C and voltage of the capillary at 1600 V. The quadrupole energy was fixed to 5.0 eV and collision chamber energy 7.0 eV, with an ion transfer time of 90 µs. The ions were analyzed in the positive polarity mode in the range 150–2200 m/z, with the acquisition frequency of the 1 Hz spectrum, as well as with the autoMS/MS system.
(§5) The collected spectra were analyzed and calibrated using DataAnalysis software (Bruker) and then identified in ProteinScape (Bruker) by the MASCOT server. Protein identification was conducted using the online SwissProt and NCBIprot databases, and their references and biological significance were identified using Reactome.org, String.org and KEGG.

[2] = test system: Glutathione S-transferase P (GSTP1_HUMAN); assay: LC–MS proteome analysis, GSTP1; type: cell-based, Homo sapiens; conditions: IC50 concentration, % of control
Experimental: as §1, §2, §3, §4, §5

[3] = test system: Glutathione S-transferase A1 (GSTA1_HUMAN); assay: LC–MS proteome analysis, GSTA1; type: cell-based, Homo sapiens; conditions: for Protein Intensity, % (GSTA1): IC50 concentration, % of control
Experimental: as §1, §2, §3, §4, §5

[4] = test system: hospital S. aureus (MRSA); assay: MIC, hospital S. aureus; type: cell-based, Staphylococcus aureus; conditions: all evaluated hospital S. aureus
Experimental: The antimicrobial activity of the compounds was tested on Gram-positive bacteria (Staphylococcus aureus NCTC 4163, Staphylococcus aureus ATCC 25923, Staphylococcus aureus ATCC 6538, Staphylococcus aureus ATCC 29213, Staphylococcus epidermidis ATCC 12228, Staphylococcus epidermidis ATCC 35984), Gram-negative rods (Escherichia coli ATCC 10538, Escherichia coli ATCC 25922, Pseudomonas aeruginosa ATCC 15442, Pseudomonas aeruginosa ATCC 27863) and yeasts (Candida albicans ATCC 10231, Candida albicans ATCC 90028, Candida parapsilosis ATCC 22019). Hospital methicillin-resistant strains of Staphylococcus aureus and Staphylococcus epidermidis were obtained from the collection of the Department of Pharmaceutical Microbiology, Medical University of Warsaw, Poland.
Antifungal activities were assessed using Mueller–Hinton agar + 2% glucose and 0.5 µg/mL methylene blue dye medium. Sterile filter paper discs (9 mm diameter, Whatman Number 3 chromatography paper) were dripped with tested compound solutions (in dimethylsulfoxide, DMSO) to load 400 μg of a given compound per disc. Dry discs were placed on the surface of appropriate agar medium. The results (diameter of the growth inhibition zone) were read after 18 h of incubation at 35 °C. Minimal inhibitory concentration (MIC) was tested by the twofold serial microdilution method (in 96-well microtiter plates) using Mueller–Hinton broth medium (Beckton Dickinson) for bacteria or RPMI-1640 medium for Candida species, according to CLSI guidelines. The stock solution of tested agent was prepared in DMSO and diluted in sterile water. […] The final inoculum of all studied microorganisms was 10^5 CFU/ mL^−1 (colony forming units per ml). Minimal inhibitory concentrations (the lowest concentration of a tested agent that prevents visible growth of a microorganism) were read after 18 h (bacteria) or 24 h (yeasts) of incubation at 35 °C.

interleukin-6 (IL-6) = assay: IL-6 level assay (ELISA); type: cell-based, human; conditions: SW480, IC50 dose, 72 h, vs control
Experimental: IL-6 concentration at all studied cancer cells and normal HaCaT cell lines was measured by ELISA kit (Diaclon SAS Besancon Cedex, France). […] IL-6 in cell culture supernatant was measured using enzyme-linked immunosorbent assay in accordance with the manufacturer’s protocol.

[5] = test system: Peroxiredoxin-2 (PRDX2_HUMAN); assay: LC–MS proteome analysis, PRDX2; type: cell-based, Homo sapiens; conditions: IC50 concentration, % of control
Experimental: as §1, §2, §3, §4, §5

SW620 cells = assay: Annexin V-FITC/PI flow cytometry, SW620; type: cell-based, human; conditions: SW620, IC50 dose, 72 h
Experimental: The cells were cultured and harvested under the conditions described in the cell culture section. […] The effect of these compounds on the process of early and late apoptosis and necrosis was determined, as described previously, by dual staining with annexin V-FITC and propidium iodide according to manufacturer’s protocol (Becton Dickinson). The cells that were annexin V-FITC positive and PI-negative were identified as early apoptotic and annexin V-FITC and PI-positive as late apoptotic or necrotic.

[6] = test system: detoxifying and ROS-scavenging enzymes (GST, GR, SOD, PRDX); assay: LC–MS proteome analysis, all 12 tested enzymes (text summaries); type: cell-based, human; conditions: PC3, IC50 concentration, span over enzymes
Experimental: as §1, §2
LC–MS analysis was carried out with the use of nanoUHPLC (nanoElute, Bruker) coupled by CaptiveSpray (Bruker) to ESI-Q-TOF mass spectrometer (Compact, Bruker). […]
as §4
The collected spectra were analyzed and calibrated using DataAnalysis software (Bruker) and then identified in ProteinScape (Bruker) by the MASCOT server. […]

[7] = test system: Peroxiredoxin-4 (PRDX4_HUMAN); assay: LC–MS proteome analysis, PRDX4; type: cell-based, Homo sapiens; conditions: IC50 concentration, % of control
Experimental: as §1, §2, §3, §4, §5

With `O=[N+]([O-])c1cc([N+]2=C(Nc3ccc(Br)cc3)[S][Cu-2]23[S]C(Nc2ccc(Br)cc2)=[N+]3c2ccc(Cl)c([N+](=O)[O-])c2)ccc1Cl` [Compound 3, Copper (II) complex with 1-(4-bromophenyl)-3-(4-chloro-3-nitrophenyl)thiourea] the “Protein Intensity, % (PRDX3)” value ([1]; PC3, 24 h) was 57.3%, the “Protein Intensity, % (PRDX3)” value ([1]; SW480, 24 h) was 85.4% and the “Protein Intensity, % (PRDX3)” value ([1]; SW620, 24 h) was 67.5%. For the same compound, the “Protein Intensity, % (GSTP1)” value ([2]; PC3, 24 h) was 51.1%, the “Protein Intensity, % (GSTP1)” value ([2]; SW480, 24 h) was 75.9% and the “Protein Intensity, % (GSTP1)” value ([2]; SW620, 24 h) was 64.5%. For the same compound, the “Protein Intensity, % (GSTA1)” value ([3]; PC3, 24 h) was 70.6%, the “Protein Intensity, % (GSTA1)” value ([3]; SW480, 24 h) was 86.6% and the “Protein Intensity, % (GSTA1)” value ([3]; SW620, 24 h) was 45.2%. The “decrease in the amount of GSTA1” value ([3]; SW620, IC50 concentration) was 54.8%, the MIC [4] was 4 µg/mL and the “decrease of IL-6 level” value (interleukin-6 (IL-6)) was no more than 30%. For the same compound, the “Protein Intensity, % (PRDX2)” value ([5]; PC3, 24 h) was 47.3%, the “Protein Intensity, % (PRDX2)” value ([5]; SW480, 24 h) was 93.7% and the “Protein Intensity, % (PRDX2)” value ([5]; SW620, 24 h) was 71.6%. The “early apoptosis, % of cells” value (SW620 cells) was “approximately 20%”, the “reduction of intensity of the 12 tested enzymes” value [6] was 29.4–69.1% and the “Protein Intensity, % (PRDX4)” value ([7]; PC3, 24 h) was 61.1%. The “Protein Intensity, % (PRDX4)” value ([7]; SW480, 24 h) was 60.1% and the “Protein Intensity, % (PRDX4)” value ([7]; SW620, 24 h) was 76.4%.
